What was measured:
129 EpiSCs = test: Conversion of EpiSCs into ICM-like iPS cells; assay type: cell-based, mouse; conditions: medium (mESM) supplemented, no transgene
Text: FIGS. 24(A)-24(B) show small molecule conversion of distinct pluripotent states. ([…] derived from the epiblast of day E5.5 mouse embryos or NOD […] ES cells and were reprogrammed into ICM-like after culture in the mESM+KP/CH. While most colonies differentiated due to withdrawal of bFGF and change of medium (indicated by asterisks), ES-like colonies could be observed after 7-9 days and passaged via trypsinization. Within 2 passages ICM-like ES lines could be stably generated. (B) However, NOD […] which was derived from NOD-ES #43 by withdrawing KP/CH and growing the cells in […] conditions for over 8 passages (FIG. 6F), remained dependent on KP/CH molecules. Factors and growth conditions utilized to facilitate the identity conversion at each step are indicated in parenthesis. The pluripotency state was evaluated and defined based on Oct4 enhancer activity, inhibitor sensitivity (indicated in red or blue accordingly for each line). Identical results were obtained by using PD/CH inhibitor combination or KP alone (data not shown). Work described here further analyzed whether the exogenous stimuli defined in this study could interconvert the two distinct pluripotent states. This work first tested whether infection of previously characterized E5.5 derived 129 […] et al., 2007) with a Klf4 or c-Myc Dox inducible vectors could convert the EpiSCs to an ICM-like pluripotent state. […]

NOD ES cells = test: Blastocyst injection (2N) and chimera generation from NOD ES lines; assay type: in vivo, mouse; conditions: NOD ES line derived and propagated with the inhibitors; 2N injections
Protocol: Diploid B6D2F2 blastocysts (94-98 h after hCG injection) were placed in a drop of M2 medium under mineral oil. A flat-tip microinjection pipette with an internal diameter of 16 μm was used for cell injection using a Piezo micromanipulator (Primetech, Japan). About 10 cells were injected into the blastoceol cavity. After injection, the embryos were cultured in KSOM medium and placed in a 37° C. humidified CO2 chamber until transferred to recipient females. Ten to fifteen injected blastocysts were transferred to each uterine horn of 2.5 days post coitum pseudo-pregnant B6D2F1 females. For teratoma generation, 2*106 cells were injected subcutaneously into both flanks of recipient SCID mice, and tumors were harvested for sectioning 3-6 weeks after initial injection. […] were collagenased and manually dissociated into small pieces and injected subcutaneously in to immuno deficient mice.

NOD-iPS cells = test: Dox-independent propagation of Dox-dependent NOD-iPS cells in supplemented mESM; assay type: cell-based, mouse (NOD); conditions: mESM lacking Dox
Text: FIGS. 4(A)-4(H) illustrate generation of genetically unmodified germline competent NOD ES cells. (A) Experimental outline for derivation of iPS lines that grow in the presence of small molecules and in the absence of Dox. Representative images of NOD iPS lines growing in mESM supplemented with the indicated small molecules or growth factors. (B) Single-cell cloning efficiency of NOD iPS cells in different growth conditions. WT or NOD-iPS cells grown in mESM and KP were sorted in 96 well plates and cultured in mESM supplemented with small molecules. The number of wells containing Nanog+ colonies was counted after 6 days. Efficiencies were normalized to that of C57B6/129F1-iPS cells (“permissive” controls) plated in mESM and defined as 100%. SD for average efficiencies from 2 experiments are shown. Student test P value compares KP/CH to PD/CH mESM conditions for NOD iPS cells. (C) Expansion of day E3.5 ICM derived NOD ES cells in the presence of KP, KP/CH or PD/CH and derivation of stable ES lines. Images of initial colonies observed at passage 2 after embryo dissociation are shown together with representative images at later passages. (D) Karyotype of NOD ES lines. (E) Immunostaining of NOD ES lines for pluripotency markers. Inhibitors used during cell line derivation and propagation are indicated. (F) Chimerism in adult mice generated from the indicated cell lines is evident by the presence of agouti (brown) and albino coat color originating from the NOD background. […] (G) Real-Time PCR analysis for endogenous expressed Oct4, c-Myc and Klf4 genes in NOD iPS and ES cells grown in the indicated conditions. Relative expression levels are normalized to levels detected in control 129 ES cells. (H) Southern analysis indicating correct targeting of the endogenous Nanog locus in NOD ES cells with Nanog-GFP knock-in targeting construct.
Small molecules have been identified to replace some of the reprogramming factors in iPS derivation (Huangfu et al., 2008; Shi et al., 2008). […]

In the case of `O=C1Cc2c([nH]c3ccc(Br)cc23)-c2ccccc2N1` [Kenpaullone, 9-bromo-7,12-dihydroindolo[3,2-d][1]benzazepin-6(5H)-one], the “conversion of EpiSCs into iPS cells (ICM-like pluripotency)” value (129 EpiSCs) is reported as “conversion can be accomplished”, the “% Chimerism (coat color)” value (NOD ES cells) is reported as 40-90% and the Born chimeras (NOD ES cells) is reported as 17. For the same molecule, the “Germline Transmission” value (NOD ES cells) was “yes” and the “Dox-independent growth of pluripotent NOD-iPS cells” value (NOD-iPS cells) was “supported Dox-independent growth”.

Reference: US20110088107A1, “COMPOSITIONS AND METHODS FOR DERIVING OR CULTURING PLURIPOTENT CELLS” (priority 2009, published 2011)
